Measured values taken from PubChem BioAssay (NCI).
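96-well plates; 48 h exposure; 5 concentrations. Endpoints by linear interpolation between flanking doses. Not reached: highest tested concentration assigned. GI50: concentration for 50% inhibition of growth. At the TGI there is no net growth.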

Key:
Test in all cases: DTP human tumour cell line panel, 48 h
MALME-3M melanoma = tested on: MALME-3M melanoma
BT-549 breast = tested on: BT-549 breast
UO-31 renal = tested on: UO-31 renal
SF-539 CNS = tested on: SF-539 CNS
MCF7 breast = tested on: MCF7 breast
SNB-75 CNS = tested on: SNB-75 CNS
NCI-H522 lung = tested on: NCI-H522 lung
PC-3 prostate = tested on: PC-3 prostate
COLO 205 colon = tested on: COLO 205 colon
RXF 393 renal = tested on: RXF 393 renal

Row | SMILES | TGI (MALME-3M melanoma) | TGI (BT-549 breast) | TGI (UO-31 renal) | TGI (SF-539 CNS) | TGI (MCF7 breast) | TGI (SNB-75 CNS) | TGI (NCI-H522 lung) | TGI (PC-3 prostate) | TGI (COLO 205 colon) | TGI (RXF 393 renal) | GI50 (MALME-3M melanoma) | GI50 (BT-549 breast) | GI50 (SF-539 CNS) | GI50 (MCF7 breast) | GI50 (SNB-75 CNS) | GI50 (NCI-H522 lung) | GI50 (PC-3 prostate) | GI50 (COLO 205 colon) | GI50 (RXF 393 renal)
1 | COC(=O)c1c2c(cc3c1CC1(Cc4ccccc4C1)C3)CCC2 | 67.2 µM | 95.5 µM | > 100 µM | > 100 µM | 23.4 µM | > 100 µM | 35.2 µM | 48.1 µM | 42.1 µM | 52.9 µM | – | – | – | – | – | – | – | – | –
2 | COc1cc(/C=C/C(=N\NC(N)=S)c2sc(NNC(C)=O)nc2C)ccc1O | > 100 µM | > 100 µM | > 100 µM | > 100 µM | > 100 µM | > 100 µM | > 100 µM | > 100 µM | > 100 µM | > 100 µM | – | – | – | – | – | – | – | – | –
3 | Nc1ccn(C2CCC(COP(=O)(O)OCC(O)COP(=O)(O)OCC3OC(n4cc(F)c(=O)[nH]c4=O)CC3O)O2)c(=O)n1 (centres undefined) | > 100 µM | > 100 µM | > 100 µM | > 100 µM | > 100 µM | > 100 µM | > 100 µM | > 100 µM | > 100 µM | > 100 µM | – | – | – | – | – | – | – | – | –
4 | COc1ccc(-c2cc(-c3ccc(Nc4ccnc5cc(Cl)ccc45)cc3)[nH]c(=O)c2C#N)cc1 | > 100 µM | > 100 µM | > 100 µM | > 100 µM | > 100 µM | > 100 µM | > 100 µM | > 100 µM | > 100 µM | > 100 µM | – | – | – | – | – | – | – | – | –
5 | CSc1nc(NCc2ccccc2)c2cnn(COCCO)c2n1 | > 100 µM | > 100 µM | > 100 µM | > 100 µM | > 100 µM | 53.6 µM | > 100 µM | > 100 µM | 85.7 µM | > 100 µM | – | – | – | – | – | – | – | – | –
6 | CN(C)CC1CCC/C(=C\c2ccc(OC(=O)/C=C/c3ccc(Cl)cc3)cc2)C1=O (centres undefined) | 16.3 µM | 14.2 µM | 12.8 µM | 5.79 µM | 4.95 µM | 24.9 µM | 1.91 µM | 11.7 µM | 2.79 µM | 4.08 µM | – | – | – | – | – | – | – | – | –
7 | Cc1ccnc(Nc2[nH]c(C(=O)c3ccc(Cl)cc3)c(N)c2C(=S)Nc2ccccc2)c1 | 29.6 µM | 30.5 µM | 37.2 µM | 26.6 µM | 31.5 µM | 39.7 µM | 27.1 µM | > 100 µM | 29.9 µM | 32.5 µM | – | – | – | – | – | – | – | – | –
8 | C/C(=N\NC(N)=S)c1nc2ncccc2[nH]1 | > 100 µM | > 96.7 µM | 82.1 µM | > 100 µM | > 100 µM | > 100 µM | > 100 µM | > 100 µM | > 100 µM | > 100 µM | – | – | – | – | – | – | – | – | –
9 | Cc1cc(C)c2c(n1)S(=O)(=O)N(CCCN1CCN(c3cccc(Cl)c3)CC1)/C(=C(\O)c1ccc(Br)cc1)C2=O | > 100 µM | > 100 µM | 48.9 µM | 95.6 µM | > 100 µM | 28.3 µM | > 100 µM | > 100 µM | 29.8 µM | 83.7 µM | – | – | – | – | – | – | – | – | –
10 | COc1ccc([I+]c2ccc(OC)cc2)cc1 | > 100 µM | > 100 µM | > 100 µM | > 100 µM | > 100 µM | > 100 µM | > 100 µM | > 100 µM | > 100 µM | > 100 µM | 13.8 µM | 11.1 µM | 11 µM | 7.26 µM | 14.9 µM | 38.3 µM | 15.7 µM | 9.34 µM | 27.3 µM
11 | COC(=O)c1ccccc1C1CN=NC12Cc1ccc3c(c1C2=O)CCC3 (centres undefined) | > 100 µM | > 100 µM | > 100 µM | > 100 µM | > 100 µM | > 100 µM | 54.7 µM | > 100 µM | > 100 µM | > 100 µM | – | – | – | – | – | – | – | – | –
12 | CCN(C(=O)N[C@H](C(=O)N[C@@H](CSC)C(=O)N[C@@H](C)C(=O)OC)C(C)C)c1ccccc1 | 26.6 µM | 32.5 µM | 31.3 µM | 39.2 µM | 31.8 µM | 27.8 µM | 22.3 µM | 31.6 µM | 32.4 µM | 32.2 µM | – | – | – | – | – | – | – | – | –
13 | NC1=Nc2ccccc2Sc2cccc(F)c21 | > 100 µM | > 100 µM | > 100 µM | > 100 µM | > 100 µM | > 100 µM | > 100 µM | > 100 µM | > 100 µM | > 100 µM | – | – | – | – | – | – | – | – | –
